Experimental data published in ChEMBL document CHEMBL2321781, “Synthesis and in vitro antimalarial testing of neocryptolepines: SAR study for improved activity by introduction and modifications of side chains at C2 and C11 on indolo[2,3-b]quinolines” (J Med Chem, 2013).
The source made the active and inactive calls. No cut-off for these calls is given here.

Columns and labels:
[1] = Selectivity index, ratio of IC50 for rat L6 cells to IC50 for chloroquine-sensitive Plasmodium falciparum NF54; type: toxicity, cell-based; settings: read-out: Ratio IC50
[2] = Toxicity against rat L6 cells after 72 hrs by Alamar blue assay; type: cell-based
[3] = Selectivity index, ratio of IC50 for rat L6 cells to IC50 for chloroquine-resistant Plasmodium falciparum K1; type: toxicity, cell-based; settings: read-out: Ratio IC50
Plasmodium berghei = test: Antimalarial activity against Plasmodium berghei ANKA infected in Swiss mouse assessed as reduction parasitaemia at 50 mg/kg, ip qd for 4 days measured 24 hrs after last treatment; type: functional; parameters: scale not given: the % may be the effect or the level left
Plasmodium falciparum [4] = test: microbe, parasite or virus in culture; settings: NF54
Description: Antimalarial activity against chloroquine-sensitive Plasmodium falciparum NF54 after 72 hrs by [3H]hypoxanthine incorporation assay

Trypanosoma cruzi = test: Antiparasitic activity against Trypanosoma cruzi Tulahuen C2C4 expressing beta-galactosidase infected in rat L6 cells after 96 hrs; type: functional, organism-based; settings: Tulahuen C2C4, L6, 96 h
Mus musculus = test: Toxicity in Plasmodium berghei ANKA infected Swiss mouse assessed as weight loss at 50 mg/kg, ip qd for 4 days; type: organism-based; parameters: dose 50 mg/kg, route intraperitoneal; settings: in vivo, 96 h
[5] = system: Trypanosoma brucei rhodesiense; test: Antiparasitic activity against Trypanosoma brucei rhodesiense STIB900 bloodstream forms incubated for 70 hrs by Alamar blue assay; type: functional, organism-based; settings: STIB900, 70 h
Leishmania donovani = test: Antiparasitic activity against Leishmania donovani MHOM/ET/67/L82 axenic amastigotes after 70 hrs by Alamar blue assay; type: functional, organism-based; settings: MHOM/ET/67/L82, 70 h
Plasmodium falciparum [6] = test: Antimalarial activity against chloroquine-resistant Plasmodium falciparum K1 after 72 hrs by [3H]hypoxanthine incorporation assay; type: functional, organism-based

SMILES	selectivity ratio [1]	IC50 at 72 h [2] [nM]	selectivity ratio [3]	Activity (Plasmodium berghei; route intraperitoneal) [%]	IC50 (Plasmodium falciparum [4]) [nM]	IC50 (Trypanosoma cruzi) [nM]	Activity (Mus musculus)	IC50 [5] [nM]	IC50 (Leishmania donovani) [nM]	IC50 (Plasmodium falciparum [6]) [nM]	Activity (Plasmodium berghei)
Cn1c2nc3ccccc3c-2c(NCCCNC(=S)Nc2ccccc2)c2ccccc21	135	1230	11	15.4	9.1	6120	Toxic	589	79200	112	–
Cn1c2nc3ccccc3c-2c(NCCCN2C(=O)CCSC2c2ccc(Cl)cc2)c2ccccc21 (stereo unspecified)	64.1	3360	86.6	–	52.4	3180	–	548	13000	38.8	–
O=C(Cn1ccnc1[N+](=O)[O-])NCc1ccccc1 [BENZNIDAZOLE]	–	–	–	–	–	1610	–	–	–	–	–
CN(C)c1ccc(C2SCC(=O)N2CCCNc2c3c4ccccc4nc-3n(C)c3ccccc23)cc1 (stereo unspecified)	64.7	3550	24.8	–	54.9	2730	–	1370	26100	143	–
Cn1c2nc3ccccc3c-2c(NCCCN)c2cc(Cl)ccc21	22.8	269	–	–	11.8	–	–	–	–	–	–
COc1ccc2c(c1)c(NCCCN)c1c3ccccc3nc-1n2C	5.1	383	–	–	74.8	–	–	–	–	–	–
Cn1c2nc3ccccc3c-2c(NCCCN)c2cc(Br)ccc21	24.8	258	–	–	10.4	–	–	–	–	–	–
Cn1c2nc3ccccc3c-2c(NCCCN)c2cc(F)ccc21	6.8	338	–	–	49.6	–	–	–	–	–	–
C[C@@H]1CC[C@H]2[C@@H](C)C(=O)O[C@@H]3O[C@@]4(C)CC[C@@H]1[C@]32OO4 [ARTEMISININ]	–	–	–	–	4.3	–	–	–	–	2.8	–
CCCCCCCCCCCCCCCCOP(=O)([O-])OCC[N+](C)(C)C [MILTEFOSINE]	–	–	–	–	–	–	–	–	361	–	–
COc1ccc2c(c1)c(NCCCNC(=O)Nc1ccccc1)c1c3ccccc3nc-1n2C	621	2730	1240	–	4.4	–	–	–	–	2.2	–
CCCCNC(=O)NCCCNc1c2c3ccccc3nc-2n(C)c2ccccc12	16.7	1740	–	–	104	–	–	–	–	–	–
Cn1c2nc3ccccc3c-2c(NCCCCCCNC(=O)Nc2ccccc2)c2ccccc21	15.4	397	–	–	25.8	–	–	–	–	–	–
Cn1c2nc3ccccc3c-2c(NCCCN2C(=O)CSC2c2ccc(Cl)cc2)c2ccccc21 (stereo unspecified)	54.4	3470	24.2	–	63.9	–	–	–	–	144	–
Cn1c2nc3ccccc3c-2c(Cl)c2ccccc21 [11-CHLORONEOCRYPTOLEPINE]	0.7	1460	0.7	–	2060	–	–	–	–	2000	–
Cn1c2nc3ccccc3c-2c(NCCCNC(=O)Nc2ccccc2)c2ccccc21	58.4	1240	132	22.1	21.3	10600	Toxic	607	97500	9.4	–

SMILES	selectivity ratio [1]	IC50 at 72 h [2] [nM]	selectivity ratio [3]	Activity (Plasmodium berghei; route intraperitoneal) [%]	IC50 (Plasmodium falciparum [4]) [nM]	IC50 (Trypanosoma cruzi) [nM]	Activity (Mus musculus)	IC50 [5] [nM]	IC50 (Leishmania donovani) [nM]	IC50 (Plasmodium falciparum [6]) [nM]	Activity (Plasmodium berghei)
Cn1c2nc3ccccc3c-2c(NCCCN)c2cc([N+](=O)[O-])ccc21	18.3	209	–	–	11.4	–	–	–	–	–	–
Cn1c2nc3ccccc3c-2c(NCCCNS(=O)(=O)c2ccc3ccccc3c2)c2ccccc21	1.3	18.2	–	–	14.2	–	–	–	–	–	–
Cn1c2nc3ccccc3c-2c(NCCCN2C(=O)CCSC2c2ccc(F)cc2)c2ccccc21 (stereo unspecified)	71.6	2730	24.3	–	38.1	–	–	–	–	112	–
Cn1c2nc3ccccc3c-2c(NCCCN2C(=O)c3ccccc3SC2c2ccc(Cl)cc2)c2ccccc21 (stereo unspecified)	41.3	1100	51.6	–	26.6	2360	–	868	9750	21.3	–
Cn1c2nc3ccccc3c-2c(NCCCN)c2cc(C(F)(F)F)ccc21	86.3	924	–	–	10.7	–	–	–	–	–	–
Cn1c2nc3ccccc3c-2c(NCCCNS(=O)(=O)c2ccccc2)c2ccccc21	1	65.2	0.5	–	63	1600	–	164	58000	124	–
Cn1c2nc3ccccc3c-2cc2ccccc21 [NEOCRYPTOLEPINE]	2	3190	1.9	–	1580	–	–	–	–	1700	–
Cn1c2nc3ccccc3c-2c(NCCCNC(=O)Nc2ccccc2)c2cc(C(F)(F)F)ccc21	313	1280	26.3	–	4.1	–	–	–	–	48.8	–
Cn1c2nc3ccccc3c-2c(NCCCNC(=O)c2cccs2)c2ccccc21	17.3	4460	–	–	258	–	–	–	–	–	–
Cn1c2nc3ccccc3c-2c(NCCCNC(=O)Nc2ccccc2)c2cc(Cl)ccc21	1400	3080	141	–	2.2	–	Toxic	–	–	21.8	inactive
Cn1c2nc3ccccc3c-2c(NCCCNC(=O)Nc2ccccc2)c2cc([N+](=O)[O-])ccc21	1300	2730	91.4	–	2.1	–	–	–	–	29.9	–
Cn1c2nc3ccccc3c-2c(NCCCNC(=O)Nc2ccccc2)c2cc(F)ccc21	143	3560	11.4	–	24.9	–	–	–	–	313	–
Cn1c2nc3ccccc3c-2c(NCCCN)c2ccccc21	3.5	279	9.4	–	78.8	–	–	–	–	29.6	–
Cn1c2nc3ccccc3c-2c(NCCCCCCN)c2ccccc21	7.1	693	–	–	98.1	–	–	–	–	–	–
Cn1c2nc3ccccc3c-2c(NCCCNC(=O)Nc2ccccc2)c2cc(Br)ccc21	706	2830	238	–	4	–	–	–	–	11.9	–
